Measured values: PMC11259170, “Small-molecule probe for IBD risk variant GPR65 I231L alters cytokine signaling networks through positive allosteric modulation” (Science Advances, 2024)
Where two headings read alike, the source gives them in different places.

Legend:
hGPR65 = target: T1, hGPR65 (Homo sapiens, UniProt Q8IYL9); assay: cAMP detection in HeLa expression cell line, hGPR65; type: cell-based; settings: for Emax: HeLa, read-out: hGPR Max Activity %; for cAMP production relative to BRD2813, hGPR65: pH 7.2
T1 construct: expressed in transfected cells; host or cells: HeLa (ATCC CCL-2), lentiviral transduction, pLX317
Description: (§1) HeLa stable expression cell lines were produced by lentiviral transduction. Briefly, lentiviral plasmids for each GPCR with a C-terminal V5 Tag ([…]) were made in a pLX317 backbone using competent Escherichia coli (New England Biolabs, C3050H). Lenti-X 293 T (Takara, 632810) cells were transfected with the lentiviral plasmids to produce virus. Low-passage HeLa cells (American Type Culture Collection, CCL-2) were then transduced with lentivirus. After 48 hours, HeLa cells were cultured under selection with puromycin (3 μg/ml) and allowed to recover and expand before storing stocks in liquid nitrogen.
(§2) cAMP was measured in cells using the Lance Ultra cAMP Kit. HeLa cells were cultured under puromycin (3 μg/ml) selection. One day before the experiment, cells were seeded in T75 flasks and allowed to adhere overnight. On the day of the experiment, cells were washed twice with Dulbecco’s PBS and lifted using prewarmed 1× versene solution (Gibco, 15040066). Cells were counted in HBSS (Gibco, 14025092) and then resuspended in stimulation buffer prepared according to the manufacturer’s instructions and adjusted to pH 7.2 using 1 M sodium hydroxide. Cells were added to the plate at a density of 1500 cells per well in white opaque 384-well assay ready microplates containing 100 nl of 10 mM compound in DMSO. Cells were stimulated for 30 min at RT, then lysed and incubated with detection reagents for 1 hour in the dark at RT. Plates were read on BMG Labtech PHERAstar FSX (excitation, 337 nm; emission, 620 and 665 nm). Data analysis was performed using GraphPad Prism.

mGPR65 = target: T2, mGPR65 (Mus musculus, UniProt Q61038); assay: cAMP detection in HeLa expression cell line, mGPR65; type: cell-based; settings: for Emax: HeLa, read-out: mGPR Max Activity %; for cAMP production relative to BRD2813, mGPR65: pH 7.2
T2 construct: expressed in transfected cells; host or cells: HeLa (ATCC CCL-2), lentiviral transduction, pLX317
Description: as §1, §2

[1] = 1st hGPR column pair, NA = no activity, read-out: hGPR EC50
[2] = 2nd hGPR column pair, NA = no activity, read-out: hGPR EC50
[3] = 1st hGPR column pair, relative to 100uM forskolin (100%) and DMSO (0%), NA = no activity
[4] = 2nd hGPR column pair, relative to 100uM forskolin (100%) and DMSO (0%), NA = no activity
[5] = 1st mGPR column pair, NA = no activity, read-out: mGPR EC50
[6] = 2nd mGPR column pair, NA = no activity, read-out: mGPR EC50
[7] = 2nd mGPR column pair, relative to 100uM forskolin (100%) and DMSO (0%), NA = no activity
[8] = relative to 100uM forskolin (100%) and DMSO (0%), NA = no activity
[9] = first pair, relative to 100uM forskolin (100%) and DMSO (0%)
[10] = hGPR EC50 (uM), NA = no activity
[11] = mGPR EC50 (uM), 2nd mGPR column pair, NA = no activity
[12] = mGPR EC50 (uM), NA = no activity

T1 sequence (Q8IYL9 whole entry): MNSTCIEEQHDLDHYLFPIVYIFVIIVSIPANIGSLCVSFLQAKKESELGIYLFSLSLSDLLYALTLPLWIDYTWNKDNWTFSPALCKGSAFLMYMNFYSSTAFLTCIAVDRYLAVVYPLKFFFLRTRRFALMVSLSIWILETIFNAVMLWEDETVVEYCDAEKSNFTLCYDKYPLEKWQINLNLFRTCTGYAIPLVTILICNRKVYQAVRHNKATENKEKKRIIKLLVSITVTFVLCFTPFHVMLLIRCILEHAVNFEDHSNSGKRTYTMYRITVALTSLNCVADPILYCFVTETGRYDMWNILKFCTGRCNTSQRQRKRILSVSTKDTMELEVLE
T2 sequence (Q61038 whole entry): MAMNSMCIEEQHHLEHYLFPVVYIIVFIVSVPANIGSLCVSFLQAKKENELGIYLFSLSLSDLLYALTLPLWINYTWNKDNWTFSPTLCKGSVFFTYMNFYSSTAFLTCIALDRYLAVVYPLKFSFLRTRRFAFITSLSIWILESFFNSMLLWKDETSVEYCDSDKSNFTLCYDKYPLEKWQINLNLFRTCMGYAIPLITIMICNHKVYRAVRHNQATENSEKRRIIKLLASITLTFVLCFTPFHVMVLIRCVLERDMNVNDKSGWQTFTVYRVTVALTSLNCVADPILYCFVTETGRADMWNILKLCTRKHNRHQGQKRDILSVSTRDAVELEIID

| SMILES | EC50 (hGPR65; [1]) [µM] | EC50 (hGPR65; [2]) [µM] | Emax (hGPR65; [3]) [%] | Emax (hGPR65; [4]) [%] | EC50 (mGPR65; [5]) [µM] | EC50 (mGPR65; [6]) [µM] | Emax (mGPR65; [7]) [%] | Emax (mGPR65; [8]) [%] | further results |
| --- | --- | --- | --- | --- | --- | --- | --- | --- | --- |
| Cc1ccc(NC(=O)c2cnn3c(O)cc(-c4ccc(F)cc4)nc23)cc1 [BRD1827] | 0.635 | 0.963 | 78 | 77.5 | 1.37 | 1.29 | 43.8 | 43.6 | – |
| COCc1ccc(-c2cc(O)n3ncc(C(=O)Nc4ccc(C(=O)N(C)C)cc4)c3n2)cc1 [BRD1926] | 34.1 | – | 11 | – | 21.5 | – | – | 28.4 | – |
| COCc1ccc(-c2cc(O)n3ncc(C(=O)Nc4cccc(C)c4)c3n2)cc1 [BRD1946] | 4.89 | 4.97 | 80.4 | 76.2 | 0.501 | 1.51 | 57.2 | 63.6 | – |
| Cc1ccc(NC(=O)c2cnn3c(O)cc(-c4ccc(Cl)cc4)nc23)cc1 [BRD2007] | 0.409 | 0.247 | 79.1 | 81.4 | 0.644 | 0.64 | 22.7 | 24.9 | – |
| COCc1ccc(-c2cc(O)n3ncc(C(=O)Nc4ccc(F)cc4)c3n2)cc1 [BRD3674] | 27.9 | – | 43.3 | – | – | 4.12 | 7.69 | – | – |
| Cc1ccc(NC(=O)c2cnn3c(O)cc(-c4ccc(-c5ccc(O)cc5)cc4)nc23)cc1 [BRD4475] | – | – | – | – | – | – | – | – | Emax (hGPR65; [9]): 22.6%; EC50 (hGPR65; SAR cAMP assay, first EC50/Max pair of hGPR columns, read-out: hGPR EC50): 10.6 µM; Emax (mGPR65; [9]): 30.5%; EC50 (mGPR65; SAR cAMP assay, first EC50/Max pair, read-out: mGPR EC50): 1.66 µM |
| COc1cc(-c2cc(O)n3ncc(C(=O)Nc4ccc(C)cc4)c3n2)ccc1Cl [BRD5061] | 0.942 | 1.57 | 72.2 | 60.5 | 0.794 | – | 20.1 | 23.4 | – |
| Cc1ccc(NC(=O)c2cnn3c(O)cc(-c4ccc(N5CCOCC5)nc4)nc23)cc1 [BRD5064] | 5.02 | 28.4 | 56.7 | 100 | 3.41 | 4.29 | 33.9 | 37.4 | – |
| Cc1ccc(NC(=O)c2cnn3c(O)cc(-c4cnc(N5CCOCC5)c(Cl)c4)nc23)cc1 [BRD5065] | 2.39 | 1.87 | 49.7 | 39.5 | 0.513 | 1.16 | 51.8 | 56.5 | – |
| Cc1ccc(NC(=O)c2cnn3c(O)cc(-c4ccc(N5CCN(C)CC5)c(Cl)c4)nc23)cc1 [BRD5068] | 1.76 | 2.82 | 53.1 | 36.9 | 0.613 | 1.04 | 66.5 | 71 | – |
| CC(C)OCc1ccc(-c2cc(O)n3ncc(C(=O)Nc4ccccn4)c3n2)cc1 [BRD5074] | 7.02 | 8.96 | 84.1 | 75.9 | 9.32 | – | – | 78 | – |
| Cc1cnc(NC(=O)c2cnn3c(O)cc(-c4ccc(COC(C)C)cc4)nc23)nc1 [BRD5076] | 2 | 1.64 | 72.4 | 69.9 | 1.14 | 1.8 | 56.3 | 59.9 | – |
| Cc1ccc(NC(=O)c2cnn3c(O)cc(-c4ccc(C(=O)NC(C)C)cc4)nc23)cc1 [BRD5085] | 2.75 | 2.82 | 46.6 | 31.2 | 0.441 | 4.17 | 32.7 | 98.4 | – |
| COCc1ccc(-c2cc(O)n3ncc(C(=O)Nc4ccc(OC)cc4)c3n2)cc1 [BRD5326] | – | – | 83 | 82.7 | – | – | 55.6 | 56.3 | EC50 (hGPR65; [10]): 1.26 µM; EC50 (hGPR65; hGPR EC50, NA = no activity): 0.903 µM; cAMP production relative to BRD2813, hGPR65 (hGPR65): little effect on cAMP production; EC50 (mGPR65; [11]): 1.26 µM; EC50 (mGPR65; [12]): 1.27 µM; cAMP production relative to BRD2813, mGPR65 (mGPR65): slight improvement in mGPR65 activity |
| COc1cccc(Cc2cc(O)n3ncc(C(=O)Nc4ccc(C)cc4)c3n2)c1 [BRD5386] | – | – | – | – | 2.01 | 2.17 | 16.4 | 39.5 | EC50 (hGPR65; NA = no activity, read-out: hGPR EC50): 1.96 µM; hGPR Max Activity (hGPR65; [8]): 4.575%; EC50 (mGPR65; 3rd mGPR column pair, NA = no activity, read-out: mGPR EC50): 0.425 µM; mGPR Max Activity (mGPR65; [8]): 21.71% |
| Cc1ccc(NC(=O)c2cnn3c(O)cc(-c4ccc(COC(C)C)cc4)nc23)cc1 [BRD5928] | – | – | 82.5 | 80 | – | – | 54.1 | 61.1 | EC50 (hGPR65; [10]): 0.271 µM; EC50 (hGPR65; hGPR EC50, NA = no activity): 0.629 µM; cAMP production relative to BRD2813, hGPR65 (hGPR65): induced high hGPR65 activity; EC50 (mGPR65; [11]): 0.494 µM; EC50 (mGPR65; [12]): 0.635 µM; cAMP production relative to BRD2813, mGPR65 (mGPR65): substantially increasing cAMP production |
| Cc1ccc(NC(=O)c2cnn3c(O)cc(COc4ccccc4)nc23)cc1 [BRD6694] | 8.03 | 4.64 | 20.7 | 22.4 | – | 19.7 | 5.79 | – | – |
| CCOCc1ccc(-c2cc(O)n3ncc(C(=O)Nc4ccc(C)cc4)c3n2)cc1 [BRD6745] | 0.667 | 0.413 | 83.5 | 81.6 | 0.554 | 0.511 | 48.9 | 52.9 | – |
| Cc1ccc(NC(=O)c2cnn3c(O)cc(-c4ccc5ccccc5c4)nc23)cc1 [BRD7102] | 0.272 | 0.151 | 79.7 | 72.5 | 0.191 | 0.269 | 35.2 | 40.7 | potency and total cAMP production relative to BRD2813 (hGPR65; receptor not given): improved potency but had little effect on total cAMP production |
